Literature values, collected in patent US8183241B2, “2-oxo-1-pyrrolidine derivatives” (UCB Pharma, S.A., priority 2005, dated 2012).

Conditions: Eur. J. Pharmacol. (1992), 222, 193-203

Structure (SMILES) | activity in the treatment of epilepsy
CC[C@H](C(N)=O)N1CCCC1=O [(R)-α-ethyl-2-oxo-1-pyrrolidine acetamide] | completely lacks activity
CC[C@@H](C(N)=O)N1CCCC1=O [Levetiracetam, (S)-α-ethyl-2-oxo-1-pyrrolidine acetamide] | effective in the treatment of epilepsy
